Test results published in patent publication US20050042714A1, “Glycoconjugates of sialic acid derivates, methods for their production and use thereof” (priority 2001, published 2005).

Legend:
HL60-I cells = test: metabolic complementation assay: lectin staining (VVA, LFA, TLM) of analogue-treated cells by flow cytometry; format: cell-based, human; settings: 5 mM, 24 h
Procedure: Medium supplementation with some synthetic sialic acid analogues restores cell surface sialylation in hyposialylated HL60-I cells. Cells were cultivated in the presence of indicated synthetic sialic acid analogue (5 mM) for 24 h and stained with either directly fluorochrome-coupled lectins (VVA, LFA) or biotin-coupled lectin (TLM) and streptavidin-FITC and analyzed by flow cytometry. Values are given as “relative factor of change” (RFC) of the “mean fluorescence intensity” (MFI) of sialic acid-treated cells relative to untreated cells. The bars represent arithmetic means±SD (n^34) of one (x) or ≧two experiments.
To test whether cells can incorporate synthetic sialic acid analogues from the culture medium, a metabolic complementation assay was performed on endogenously hyposialylated, UDP-GlcNAc-2-epimerase-deficient HL60-I cells.
Cells were cultivated for 24 h in the presence of one of 16 different synthetic sialic acid analogues, carrying distinct C5 or C9 modifications (FIG. 1), and subsequently, changes in cell surface sialylation were assessed by flow cytometry using three fluorochrome-conjugated sialic acid-sensitive lectins. Vicia villosa agglutinin (VVA) detects GalNAc residues, and its binding sites can be masked by the addition of terminal sialic acid residues.
In sugar supplementation assays, cells seeded at 5×10^5 cells/ml in culture medium buffered with 40 mM HEPES (pH 7.2) were cultivated for 24 h in the presence or absence of 5 mM sialic acids (stocks of 100 mM dissolved in H2O, stored at 4° C.).
Lyophilized FITC-conjugated lectins Vicia villosa (VVA) was obtained from Sigma, dissolved in H2O (1 mg/ml), aliquoted and stored at −20° C. according to the manufacturer's instructions. FITC-conjugated Limax flavus agglutinin (LFA) was from EY Laboratories (San Manteo, Calif., USA) and biotin-coupled Tritrichomonas mobilensis agglutinin (TLM) from Calbiochem. Lectin staining procedure and fluorescence-activated cell scanning on a Becton Dickinson FACScan cytometer using Cellquest II software were carried out as described (Keppler, O. T., Molden-hauer, G., Oppenländer, M., Schwartz-Albiez, R., Berger, E. G., Funderud, S., and Pawlita, M. (1992) Eur J Immunol 22(11), 2777-81). Briefly, cells (3×10^5) were washed twice in cold PBS and then incubated in 100 μl PBS/0.05% NaN3, containing either fluorochrome-conjugated lectins VVA (50 μg/ml), LFA (20 μg/ml), or biotinylated TLM (20 μg/ml) for 45 min on ice in the dark. For biotinylated TLM a secondary incubation step with steptavidin-FITC (20 μg/ml) (Sigma) for 30 min on ice in the dark is required. After washing with PBS, cells were resuspended in 300 μl PBS and analyzed by flow cytometry.

[1] = tested on: B-lymphotropic papovavirus (LPV) in BJA-B K20 cells; test: LPV infection of analogue-treated hyposialylated cells (VP1 ELISA, T-antigen immunofluorescence); format: cell-based, human; settings: BJA-B K20 cells (statement also covers K88 cells)
Procedure: Changes in permissivity for the sialic acid-dependent B-lymphotropic papovavirus (LPV) in hyposialylated (K20) and normally sialylated (K88) BJA-B cells after treatment with sialic acid analogues. Cells were treated with analogues or NeuAc for 3d. 50 h post LPV inoculation the LPV infection was quantified (A) by detecting the amount of LPV VP1 in cell lysates relative to the total protein content by ELISA and (B) by indirect immunofluorescence microscopy as percentage of LPV T-antigen-positive BJA-B K20 cells. A, values are given as arithmetic means±SD of three independent experiments. B, representatives of three experiments are shown. DAPI-staining (left) indicates the total amount of cells in the section, on the right LPV T-antigen positive cells are shown with the average percentage given beside. […]
BJA-B subclones were infected with the B-lymphotropic papovavirus (LPV) as described (Keppler, O. T., Herrmann, M., Oppenländer, M., Meschede, W., and Pawlita, M. (1994) J Virol 68(11), 6933-9). […] LPV infection was quantified by indirect immunofluorescence microscopy as percentage of LPV T-antigen positive cells and the amount of LPV VP1 in cell lysates was determined by ELISA relative to the total protein extracted.

## CC(=O)N[C@H]1[C@H]([C@H](O)[C@@H](C)O)OC(O)(C(=O)O)C[C@@H]1O (stereo partly shown) [analogue a, 5-N-acetyl-9-deoxy-neuraminic acid]
HL60-I cells
  effect on LFA binding: increased binding of LFA
  effect on TLM binding: increased binding
HL60-I cells; decrease = masking of GalNAc by sialic acid
  effect on VVA binding: significantly decreased VVA-binding
[1]
  LPV-permissivity: to a lesser extent
